Converted amounts (≈) assume the structure as drawn. Where two headings read alike, the source gives them in different places.
Legend:
Type in all cases: physicochemical
[1] = Thermodynamic equilibrium solubility in anisole
Experimental: (§1) Anisole was selected as solvent based on good stability and measurable solubility of bimatoprost acid polymorphs in the studied temperature range. […] Another solvent, nitromethane, was selected to detect the solubility of bimatoprost acid at 9 and 22° C. […] At 22° C., both forms converted to oils where no comparison between the two polymorphs could be made.

[2] = Vapor sorption analysis (VSA); settings: for relative humidity at which the monohydrate (hydrated form) forms: first adsorption
Experimental: The crystalline monohydrate form (designated polymorph III) was discovered upon vapor sorption analysis (VSA) of both polymorph I and polymorph II. […] The conversion of polymorph I to the monohydrate form was confirmed by XRPD. […] The 2nd adsorption cycle of polymorph II reconfirms formation of the monohydrate again at RH˜75% (FIG. 7). […] The thermal analysis (MDSC) of the monohydrate form indicates a melting endotherm onset (Tonset) at 53.9° C. and a fusion enthalpy (ΔHf) of 72.4 J/g for the monohydrate form (see FIG. 8).

[3] = Isothermal competitive co-slurries of polymorph I and II; settings: 1:1 ratio co-slurry at 5, 20 and 35° C.
Experimental: The differences in free energy between the polymorphs were measured as a function of temperature in order to determine the transition temperature and relative stability versus temperature.

[4] = Solubility in nitromethane
Experimental: as §1

SMILES: O=C(O)CCCC=CCC1C(O)CC(O)C1C=CC(O)CCc1ccccc1 (centres unmarked) [bimatoprost acid, 7-[3,5-Dihydroxy-2-(3-hydroxy-5-phenyl-pent-1-enyl)-cyclopentyl]-hept-5-enoic acid]
- physical state in solubility study ([1]; temperatures above 40° C.): transforms to an oil

SMILES: O=C(O)CCCC=CCC1C(O)CC(O)C1C=CC(O)CCc1ccccc1 (centres unmarked) [polymorph I, 7-[3,5-Dihydroxy-2-(3-hydroxy-5-phenyl-pent-1-enyl)-cyclopentyl]-hept-5-enoic acid]
- relative humidity at which the monohydrate (hydrated form) forms ([2]; 25° C.): ~75 % RH
- water absorbed ([2]; RH~75%, 25° C.): 4.42 w/w %
- polymorph conversion / relative stability [3]: converts to polymorph II at all three temperatures
- solubility ([4]; 9 °C, organic solvent or mixture, thermodynamic from solid, read-out: solubility): 4100 ± 300 µg/mL (≈ 10.6 mM)

SMILES: O=C(O)CCCC=CCC1C(O)CC(O)C1C=CC(O)CCc1ccccc1 (centres unmarked) [polymorph II, 7-[3,5-Dihydroxy-2-(3-hydroxy-5-phenyl-pent-1-enyl)-cyclopentyl]-hept-5-enoic acid]
- thermodynamic equilibrium solubility (comparison of polymorphs) ([1]; 6° C. and 25° C.): lower solubility
- relative humidity at which the monohydrate forms ([2]; 2nd adsorption cycle): ~75%
- relative humidity at which the monohydrate (hydrated form) forms ([2]; 25° C.): above 85 % RH
- polymorph conversion / relative stability [3]: more stable form over the temperature range of 5-35 °C
- solubility ([4]; 9° C.): 3300 ± 200 µg/mL (≈ 8.49 mM)

SMILES: O=C(O)CCCC=CCC1C(O)CC(O)C1C=CC(O)CCc1ccccc1 (centres unmarked) [polymorph III, 7-[3,5-Dihydroxy-2-(3-hydroxy-5-phenyl-pent-1-enyl)-cyclopentyl]-hept-5-enoic acid]
- conversion upon drying ([2]; drying in vapor sorption analyzer at 25° C.): converted beck to the initial polymorph 1
